Experimental data as given in publication PMC7705112, “A Novel, Broad-Acting Peptide Inhibitor of Double-Stranded DNA Virus Gene Expression and Replication” (Frontiers in Microbiology, 2020).
Where two headings read alike, the source gives them in different places. Peptide text beside a SMILES is read from it.

How the values were obtained:
HEK293 cells [1] = assay: Cell viability, CellTiter-Glo 2.0; type: cell-based; conditions: 96 h incubation; Figure 2B, triplicate wells
Description: (§1) Vero, MRC-5, and CV-1 cells were cultured in Dulbecco’s Modified Eagle Medium (DMEM; ThermoFisher, Waltham, MA, United States) and Jurkat cells were cultured in RPMI 1640 medium containing 10% fetal calf serum, 100 U/ml penicillin, and 0.1 mg/ml streptomycin (ThermoFisher). HEK293 and NIH/3T3 cells were adapted to growth in CO2-independent medium supplemented with 10% fetal calf serum, 2 mM glutamine, and 1% antibiotic-antimycotic (ThermoFisher) and cultivated in a humidified atmosphere at 37°C. […] Viability was analyzed using CellTiter-Glo® 2.0 Assay according to the manufacturer’s protocol (Promega). […] Cytotoxicity was analyzed using MultiTox-Glo Multiplex Cytotoxicity Assay according to the manufacturer’s protocol (Promega).

HEK293 cells [2] = assay: Morphology of HEK293 cells; type: cell-based
adenovirus type 5 = type: cell-based; conditions: HEK293, adenovirus-GFP-Luc, 24 h, single value of Figure 3A (duplicate wells); read-out: EC50, inhibition of reporter gene expression
Description: Luciferase from cell lysates was recorded 24 hours after infection. Results shown are luciferase levels expressed as % of control from duplicate wells. Luciferase was detected using Luciferase Assay System as described in Materials & Methods of the main article.

adenovirus 5 = type: cell-based; conditions: A549, MOI 1.0, Gaussia luciferase after 24 h; Figure 3D, triplicate wells; read-out: EC50, inhibition of replication
NIH/3T3 cells = assay: Cytotoxicity, MultiTox-Glo Multiplex; type: cell-based; conditions: 72 h; Figure 4B, triplicates
Description: as §1

[3] = system: HSV-1 F, HSV-1 703, HSV-1 601; type: cell-based, herpes simplex virus; conditions: for EC50: Figure 8A, triplicate wells
VZV transcripts = VZV transcripts by real-time PCR; type: cell-based, varicella zoster virus; conditions: lysates of infected cells, normalized to GAPDH mRNA; Figure S8; read-out: EC50, reduction of VZV transcripts
Description: VZV transcripts were analysed from lysates of infected cells by real-time PCR using ViroReal® VZV (RTGM20V; Ingenetix GmbH, Austria) and normalized to GAPDH mRNA.

[4] = system: RSV RNA (nucleocapsid protein gene); assay: RSV RNA by real-time PCR; type: cell-based, Respiratory syncytial virus
Description: Lysates from infected cells were examined for the presence of RSV RNA by real-time PCR using ViroReal® RSV (RTGM20V; Ingenetix GmbH, Austria) detecting the nucleocapsid protein gene of RSV and normalized to GAPDH mRNA. Calculated EC50 was 0.8 µM for TAT-I24 with 80% inhibition at the highest concentration (20 µM). Ribavirin was included as control.

Baculovirus-Luc = conditions: for EC50: read-out: EC50, inhibition of reporter gene expression
[5] = system: vaccinia virus wild-type (strain Western Reserve); conditions: read-out: EC50, inhibition of VACV wt replication; CV-1, MOI 0.2, 1 h preincubation, 24 h, TCID50; Figure 9B, two independent experiments
GAPDH mRNA, MRC-5 cells = assay: GAPDH mRNA in cells of the HCMV replicon assay; conditions: at the highest concentration of 20 μM; no effect below
Varicella zoster virus = assay: VZV cytopathic effect; conditions: human fibroblasts, pre-treated, infected 1 h, three days, microscopy
[6] = system: firefly luciferase reporter gene under control of the CMV promoter, HEK293 cells; assay: Luciferase expression from transfected CMV promoter plasmid (Superfect); type: cell-based; conditions: HEK293, Figure 1D, TAT (47–57) alone
Description: Briefly, for one well of a 48-well plate, 100 ng DNA and 1 μl Superfect reagent were mixed by pipetting followed by addition of 12.5 μl of serum‐ and antibiotic-free medium. After brief vortexing and further incubation at room temperature for 15 min, 112.5 μl medium containing 10% fetal calf serum and antibiotics were added. For transfection in the presence of peptides, a transfection mixture of DNA, Superfect reagent, and serum-and antibiotic-free medium were prepared for the required number of wells. From this mixture, 25 μl aliquots were made and 0.5 μl peptides (10 mM each) added to each aliquot, vortexed briefly, and incubated for 15 min at room temperature. Then, 225 μl of medium containing 10% fetal calf serum was added and 125 μl applied per well of duplicate wells. For other types of multi-well plates, volumes were adapted according to the growth area of the wells.

`CC(C)C[C@H](NC(=O)[C@@H](N)CS)C(=O)N[C@@H](C)C(=O)N[C@@H](Cc1ccccc1)C(=O)N[C@@H](Cc1ccc(O)cc1)C(=O)N[C@@H](C)C(=O)N[C@@H](CS)C(=O)N[C@@H](Cc1ccccc1)C(=O)N[C@@H](CS)C(=O)O` [I24] (H-CLAFYACFC-OH) was tested, and the “effects on HEK293 cell viability” value (HEK293 cells [1]) was “no effects”.
`CC(C)C[C@H](NC(=O)[C@H](CS)NC(=O)[C@H](CCC(N)=O)NC(=O)[C@@H]1CCCN1C(=O)[C@@H]1CCCN1C(=O)[C@H](CCCNC(=N)N)NC(=O)[C@H](CCCNC(=N)N)NC(=O)[C@H](CCCNC(=N)N)NC(=O)[C@H](CCC(N)=O)NC(=O)[C@H](CCCNC(=N)N)NC(=O)[C@H](CCCNC(=N)N)NC(=O)[C@H](CCCCN)NC(=O)[C@H](CCCCN)NC(=O)[C@H](CCCNC(=N)N)NC(=O)CN)C(=O)N[C@@H](C)C(=O)N[C@@H](Cc1ccccc1)C(=O)N[C@@H](Cc1ccc(O)cc1)C(=O)N[C@@H](C)C(=O)N[C@@H](CS)C(=O)N[C@@H](Cc1ccccc1)C(=O)N[C@@H](CS)C(=O)O` [TAT-I24] (H-GRKKRRQRRRPPQCLAFYACFC-OH) was tested, and the “effects on HEK293 cell viability” value (HEK293 cells [1]) was “no effects”, the “concentrations at which some morphological changes were observed” value (HEK293 cells [2]) was over 10 μM and the EC50 (adenovirus type 5) was 3140 nM. For the same compound, the EC50 (adenovirus 5) was 3250 nM, the “cytotoxic effects (viable and dead cells)” value (NIH/3T3 cells) was “No cytotoxic effects” and the EC50 ([3]; HSV1 601 (aciclovir-sensitive isolate)) was 370 nM. It also gave an EC50 ([3]; HSV1 703 (aciclovir-resistant isolate)) of 910 nM, an EC50 ([3]; HSV-1 F) of 1930 nM and an EC50 (VZV transcripts) of 3300 nM. The “inhibition of RSV RNA” value ([4]; at the highest concentration (20 µM)) was 80%, the EC50 ([4]; lysates from infected cells, normalized to GAPDH mRNA, Figure S9) was 800 nM and the “inhibition of reporter gene expression” value (Baculovirus-Luc; HEK293, peptide added together with baculovirus, 24 h, Figure 2A) was over 95%. For the same compound, the EC50 (Baculovirus-Luc; HEK293, MOI 5, peptide added together with baculovirus, 24 h, Figure 2A, duplicate wells) was 170 nM, the EC50 [5] was 790 nM and the “effect on mock infected CV-1 cells” value (CV-1 cells) was “No effect”. For the same compound, the “effects on CV-1 cell attachment” value (CV-1 cells; at higher dosages (20 and 6.6 μM)) was “some effects” and the “GAPDH mRNA levels” value (GAPDH mRNA, MRC-5 cells) was “some reduction”.
`CC(C)C[C@H](NC(=O)[C@H](CS)NC(=O)[C@H](Cc1ccc(O)cc1)NC(=O)[C@@H]1CCCN1C(=O)[C@H](CC(=O)O)NC(=O)[C@H](CCC(=O)O)NC(=O)[C@@H](NC(=O)[C@H](CCCCN)NC(=O)[C@H](CCCNC(=N)N)NC(=O)[C@H](CCCCN)NC(=O)[C@H](CCCCN)NC(=O)[C@H](CCCCN)NC(=O)[C@@H]1CCCN1)C(C)C)C(=O)N[C@@H](C)C(=O)N[C@@H](Cc1ccccc1)C(=O)N[C@@H](Cc1ccc(O)cc1)C(=O)N[C@@H](C)C(=O)N[C@@H](CS)C(=O)N[C@@H](Cc1ccccc1)C(=O)N[C@@H](CS)C(=O)O` [SV40 NLS-I24] (H-PKKKRKVEDPYCLAFYACFC-OH) was tested, and the EC50 (Baculovirus-Luc; HEK293, Figure 2E, triplicate wells) was 1000 nM.
For `Nc1nc2c(ncn2COCCO)c(=O)[nH]1` [ACV, aciclovir], the “sensitivity of isolate to aciclovir” value ([3]; HSV-1 isolate 703, Figure S6A) was “resistance” and the CPE (Varicella zoster virus) was 4 µM.
YGRKKRRQRRRC [TAT-C] was tested, and the “inhibition of luciferase expression” value (Baculovirus-Luc; HEK293, at the highest tested concentration of 20 μM, Figure 2E) was “only partial inhibition”.
In the case of YGRKKRRQRRR [TAT (47–57)], the “effect on reporter gene expression” value [6] is reported as “ineffective” and the “effect on luciferase levels” value (Baculovirus-Luc; HEK293, 24 h, Figure 2A (TAT = TAT (47–57))) is reported as “did not affect”.
